Patent publication US12599136B2, “Substituted isophthalic acid diamides and their use as herbicides” (Bayer Aktiengesellschaft, priority 2020, dated 2026)

Key:
Format in all cases: in vivo
[1] = system: Stellaria media; experiment: Pre-emergence herbicidal action against STEME
In short: (§1)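 Visual rating at 3 weeks vs untreated pots; 0–100% scale, 100% = plants died. Treatment: aqueous WP/EC spray onto covering soil, 600–800 l/ha, 0.2% wetter, seeds in sandy loam.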

[2] = system: Viola tricolor; experiment: Post-emergence herbicidal action against VIOTR
In short: (§2)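 Greenhouse pot plants in sandy loam were sprayed at the one-leaf stage, 2 to 3 weeks after sowing, with WP or EC formulations as aqueous suspension or emulsion (600 to 800 l/ha water, 0.2% wetting agent). About 3 weeks later, damage was scored visually against untreated controls as % action (100% = dead, 0% = like control).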

[3] = system: Alopecurus myosuroides; experiment: Pre-emergence herbicidal action against ALOMY; conditions: visual score after 3 weeks vs untreated controls
In short: as §1

[4] = system: Veronica persica; experiment: Post-emergence herbicidal action against VERPE; conditions: visual assessment about 3 weeks after treatment
In short: as §2

[5] = system: Matricaria inodora; experiment: Pre-emergence herbicidal action against MATIN; conditions: visual score after 3 weeks vs untreated controls
In short: as §1

[6] = system: Lolium rigidum; experiment: Post-emergence herbicidal action against LOLRI
Protocol: (§3) Seeds of monocotyledonous and dicotyledonous weed and crop plants are laid out in sandy loam soil in wood-fiber pots, covered with soil and cultivated in a greenhouse under good growth conditions. 2 to 3 weeks after sowing, the test plants are treated at the one-leaf stage. The compounds of the invention, formulated in the form of wettable powders (WP) or as emulsion concentrates (EC), are then sprayed onto the green parts of the plants in the form of an aqueous suspension or emulsion at a water application rate equivalent to 600 to 800 l/ha, with addition of 0.2% wetting agent. After the test plants have been left to stand in the greenhouse under optimal growth conditions for about 3 weeks, the action of the preparations is assessed visually in comparison to untreated controls (herbicidal action in percent (%): 100% activity=the plants have died, 0% activity=like control plants). […] The tables below illustrate, in an illustrative manner, the post-emergence herbicidal action of the compounds of the invention, the herbicidal activity being stated in percent.

[7] = system: Echinochloa crus-galli; experiment: Pre-emergence herbicidal action against ECHCG; conditions: 320 g/ha; visual score after 3 weeks vs untreated controls
In short: as §1

[8] = system: Pharbitis purpurea; experiment: Post-emergence herbicidal action against PHBPU; conditions: visual assessment about 3 weeks after treatment
In short: as §2

[9] = system: Polygonum convolvulus; experiment: Pre-emergence herbicidal action against POLCO
In short: as §1

[10] = system: Polygonum convolvulus; experiment: Post-emergence herbicidal action against POLCO; conditions: visual assessment about 3 weeks after treatment
In short: as §2

[11] = system: Cyperus esculentus; experiment: Post-emergence herbicidal action against CYPES; conditions: 80 g/ha, visual assessment about 3 weeks after treatment
Protocol: as §3

[12] = system: Abutilon theophrasti; experiment: Post-emergence herbicidal action against ABUTH
In short: as §2

[13] = system: Viola tricolor; experiment: Pre-emergence herbicidal action against VIOTR
In short: as §1

[14] = system: Stellaria media; experiment: Post-emergence herbicidal action against STEME; conditions: visual assessment about 3 weeks after treatment
In short: as §2

[15] = system: Lolium rigidum; experiment: Pre-emergence herbicidal action against LOLRI
In short: as §1

[16] = system: Avena fatua; experiment: Pre-emergence herbicidal action against AVEFA; conditions: visual score after 3 weeks vs untreated controls
In short: as §1

[17] = system: Setaria viridis; experiment: Pre-emergence herbicidal action against SETVI
In short: as §1

[18] = system: Cyperus esculentus; experiment: Pre-emergence herbicidal action against CYPES; conditions: visual score after 3 weeks vs untreated controls
In short: as §1

[19] = system: Matricaria inodora; experiment: Post-emergence herbicidal action against MATIN; conditions: visual assessment about 3 weeks after treatment
In short: as §2

[20] = system: Setaria viridis; experiment: Post-emergence herbicidal action against SETVI; conditions: visual assessment about 3 weeks after treatment
In short: as §2

[21] = system: Alopecurus myosuroides; experiment: Post-emergence herbicidal action against ALOMY
In short: as §2

[22] = system: Abutilon theophrasti; experiment: Pre-emergence herbicidal action against ABUTH; conditions: visual score after 3 weeks vs untreated controls
In short: as §1

[23] = system: Amaranthus retroflexus; experiment: Pre-emergence herbicidal action against AMARE; conditions: visual score after 3 weeks vs untreated controls
In short: as §1

[24] = system: Echinochloa crus-galli; experiment: Post-emergence herbicidal action against ECHCG; conditions: visual assessment about 3 weeks after treatment
In short: as §2

[25] = system: Avena fatua; experiment: Post-emergence herbicidal action against AVEFA; conditions: visual assessment about 3 weeks after treatment
In short: as §2

[26] = system: Veronica persica; experiment: Pre-emergence herbicidal action against VERPE
In short: as §1

[27] = system: Amaranthus retroflexus; experiment: Post-emergence herbicidal action against AMARE; conditions: visual assessment about 3 weeks after treatment
In short: as §2

[28] = system: Hordeum murinum; experiment: Pre-emergence herbicidal action against HORMU; conditions: visual score after 3 weeks vs untreated controls
In short: as §1

[29] = system: Pharbitis purpurea; experiment: Pre-emergence herbicidal action against PHBPU; conditions: 320 g/ha; visual score after 3 weeks vs untreated controls
In short: as §1

[30] = Dosage column 320 g/ha (heading prints 3200 g/ha)

Cn1nnnc1NC(=O)c1ccc(C(F)(F)F)c(C(=O)N2CCCC2)c1Cl [Example 1-152]
100%: Pre-emergence action against STEME ([1]; 80 g/ha) | Pre-emergence action against STEME ([1]; 320 g/ha) | Pre-emergence action against ALOMY ([3]; 320 g/ha) | Pre-emergence action against MATIN ([5]; 20 g/ha) | Pre-emergence action against MATIN ([5]; 80 g/ha) | Pre-emergence action against MATIN ([5]; 320 g/ha) | Post-emergence action against LOLRI in % ([6]; 80 g/ha) | Pre-emergence action against ECHCG [7] | Pre-emergence action against POLCO ([9]; 320 g/ha) | Post-emergence action against ABUTH ([12]; 5 g/ha) | Post-emergence action against ABUTH ([12]; 20 g/ha) | Post-emergence action against ABUTH ([12]; 80 g/ha) | Pre-emergence action against VIOTR ([13]; 80 g/ha) | Pre-emergence action against VIOTR ([13]; 320 g/ha) | Post-emergence action against STEME in % ([14]; 80 g/ha) | Pre-emergence action against LOLRI ([15]; 320 g/ha) | Pre-emergence action against AVEFA ([16]; 80 g/ha) | Pre-emergence action against AVEFA ([16]; 320 g/ha) | Pre-emergence action against SETVI ([17]; 20 g/ha) | Pre-emergence action against SETVI ([17]; 80 g/ha) | Pre-emergence action against SETVI ([17]; 320 g/ha) | Pre-emergence action against CYPES ([18]; 320 g/ha) | Post-emergence action against SETVI in % ([20]; 5 g/ha) | Post-emergence action against SETVI in % ([20]; 20 g/ha) | Post-emergence action against SETVI in % ([20]; 80 g/ha) | Pre-emergence action against ABUTH ([22]; 20 g/ha) | Pre-emergence action against ABUTH ([22]; 80 g/ha) | Pre-emergence action against ABUTH [22, 30] | Pre-emergence action against AMARE ([23]; 20 g/ha) | Pre-emergence action against AMARE ([23]; 80 g/ha) | Pre-emergence action against AMARE ([23]; 320 g/ha) | Post-emergence action against ECHCG in % ([24]; 80 g/ha) | Post-emergence action against AVEFA in % ([25]; 80 g/ha) | Post-emergence action against AMARE in % ([27]; 5 g/ha) | Post-emergence action against AMARE in % ([27]; 20 g/ha) | Post-emergence action against AMARE in % ([27]; 80 g/ha) | Pre-emergence action against HORMU ([28]; 320 g/ha)
90%: Pre-emergence action against STEME ([1]; 20 g/ha) | Post-emergence action against VIOTR in % ([2]; 80 g/ha) | Pre-emergence action against ALOMY ([3]; 80 g/ha) | Post-emergence action against VERPE in % ([4]; 20 g/ha) | Post-emergence action against VERPE in % ([4]; 80 g/ha) | Post-emergence action against LOLRI in % ([6]; 20 g/ha) | Post-emergence action against PHBPU in % ([8]; 20 g/ha) | Post-emergence action against PHBPU in % ([8]; 80 g/ha) | Post-emergence action against STEME in % ([14]; 5 g/ha) | Post-emergence action against STEME in % ([14]; 20 g/ha) | Pre-emergence action against CYPES ([18]; 80 g/ha) | Post-emergence action against MATIN in % ([19]; 80 g/ha) | Post-emergence action against ALOMY ([21]; 80 g/ha) | Post-emergence action against ECHCG in % ([24]; 20 g/ha) | Post-emergence action against AVEFA in % ([25]; 20 g/ha) | Pre-emergence action against VERPE ([26]; 320 g/ha) | Pre-emergence action against HORMU ([28]; 80 g/ha)
80%: Pre-emergence action against ALOMY ([3]; 20 g/ha) | Post-emergence action against PHBPU in % ([8]; 5 g/ha) | Pre-emergence action against POLCO ([9]; 80 g/ha) | Post-emergence action against POLCO in % ([10]; 5 g/ha) | Post-emergence action against POLCO in % ([10]; 80 g/ha) | Post-emergence action against CYPES in % [11] | Pre-emergence action against LOLRI ([15]; 80 g/ha) | Post-emergence action against ALOMY ([21]; 20 g/ha) | Post-emergence action against ECHCG in % ([24]; 5 g/ha) | Pre-emergence action against PHBPU [29]

CCn1nnnc1NC(=O)c1ccc(C(F)(F)F)c(C(=O)N2CCCC2)c1Cl [Example 2-152]
80%: Post-emergence action against VERPE in % ([4]; 5 g/ha) | Post-emergence action against VERPE in % ([4]; 20 g/ha) | Post-emergence action against VERPE in % ([4]; 80 g/ha) | Post-emergence action against PHBPU in % ([8]; 20 g/ha) | Post-emergence action against PHBPU in % ([8]; 80 g/ha) | Pre-emergence action against POLCO ([9]; 80 g/ha) | Post-emergence action against POLCO in % ([10]; 80 g/ha) | Post-emergence action against CYPES in % [11] | Post-emergence action against ABUTH ([12]; 5 g/ha) | Post-emergence action against ABUTH ([12]; 20 g/ha) | Post-emergence action against ABUTH ([12]; 80 g/ha) | Post-emergence action against STEME in % ([14]; 5 g/ha) | Pre-emergence action against CYPES ([18]; 80 g/ha) | Post-emergence action against MATIN in % ([19]; 5 g/ha) | Post-emergence action against MATIN in % ([19]; 20 g/ha) | Post-emergence action against SETVI in % ([20]; 20 g/ha) | Post-emergence action against ALOMY ([21]; 5 g/ha) | Post-emergence action against AVEFA in % ([25]; 5 g/ha) | Pre-emergence action against VERPE ([26]; 80 g/ha) | Pre-emergence action against HORMU ([28]; 320 g/ha)
90%: Pre-emergence action against ALOMY ([3]; 80 g/ha) | Pre-emergence action against MATIN ([5]; 20 g/ha) | Post-emergence action against LOLRI in % ([6]; 80 g/ha) | Pre-emergence action against POLCO ([9]; 320 g/ha) | Post-emergence action against STEME in % ([14]; 20 g/ha) | Post-emergence action against STEME in % ([14]; 80 g/ha) | Pre-emergence action against SETVI ([17]; 80 g/ha) | Post-emergence action against ALOMY ([21]; 20 g/ha)
100%: Pre-emergence action against STEME ([1]; 20 g/ha) | Pre-emergence action against STEME ([1]; 80 g/ha) | Pre-emergence action against STEME ([1]; 320 g/ha) | Post-emergence action against VIOTR in % ([2]; 20 g/ha) | Post-emergence action against VIOTR in % ([2]; 80 g/ha) | Pre-emergence action against ALOMY ([3]; 320 g/ha) | Pre-emergence action against MATIN ([5]; 80 g/ha) | Pre-emergence action against MATIN ([5]; 320 g/ha) | Pre-emergence action against ECHCG [7] | Pre-emergence action against VIOTR ([13]; 320 g/ha) | Pre-emergence action against LOLRI ([15]; 320 g/ha) | Pre-emergence action against AVEFA ([16]; 80 g/ha) | Pre-emergence action against AVEFA ([16]; 320 g/ha) | Pre-emergence action against SETVI ([17]; 320 g/ha) | Pre-emergence action against CYPES ([18]; 320 g/ha) | Post-emergence action against MATIN in % ([19]; 80 g/ha) | Post-emergence action against SETVI in % ([20]; 80 g/ha) | Post-emergence action against ALOMY ([21]; 80 g/ha) | Pre-emergence action against ABUTH ([22]; 20 g/ha) | Pre-emergence action against ABUTH ([22]; 80 g/ha) | Pre-emergence action against ABUTH [22, 30] | Pre-emergence action against AMARE ([23]; 20 g/ha) | Pre-emergence action against AMARE ([23]; 80 g/ha) | Pre-emergence action against AMARE ([23]; 320 g/ha) | Post-emergence action against ECHCG in % ([24]; 20 g/ha) | Post-emergence action against ECHCG in % ([24]; 80 g/ha) | Post-emergence action against AVEFA in % ([25]; 20 g/ha) | Post-emergence action against AVEFA in % ([25]; 80 g/ha) | Pre-emergence action against VERPE ([26]; 320 g/ha) | Post-emergence action against AMARE in % ([27]; 5 g/ha) | Post-emergence action against AMARE in % ([27]; 20 g/ha) | Post-emergence action against AMARE in % ([27]; 80 g/ha)
